From the OPERA property sets (Mansouri et al. 2018)

settings: not given

In order of rising melting point:
1. CC(C)CC1CCCC1  -115 °C
2. C1COCO1  -95 °C
3. CCc1ccccc1Br  -67.9 °C
4. CC#CCCCCC  -61.6 °C
5. BrCBr  -52.5 °C
6. Clc1ccncc1  -43.5 °C
7. CC(CCl)OP(=O)(OC(C)CCl)OC(C)CCl (centres undefined)  -40 °C
8. CC(C)(C)c1ccccn1  -33 °C
9. Brc1ccccc1  -30.6 °C
10. Cc1ccc(Cl)cc1C  -6 °C
11. COc1ccc(CCC(C)=O)cc1  8 °C
12. C[C@@H](S)C(=O)O  12 °C
13. CC(=O)NCCO  16 °C
14. COc1ccc(C)c([N+](=O)[O-])c1  17 °C
15. Cc1ccc(-c2ccccc2)cc1C  29.5 °C
16. Oc1c(F)c(F)c(F)c(F)c1F  32.8 °C
17. O=C=Nc1ccc(Cl)c(Cl)c1  43 °C
18. Nc1ccc(F)c(Cl)c1  45.5 °C
19. CC(Cl)(Cl)C(=O)OCCOc1cc(Cl)c(Cl)cc1Cl  49.5 °C
20. Nc1ccccc1I  56.5 °C
21. COc1ccc2[nH]ccc2c1  57 °C
22. Cc1ccc(C(C)C)c(OC(=O)NCCC(C)C)c1  57 °C
23. CCO[Si](c1ccccc1)(c1ccccc1)c1ccccc1  65 °C
24. O=C(c1ccccc1)C(Cl)c1ccccc1 (centres undefined)  68.5 °C
25. COP(=S)(Oc1cc(Cl)c(Br)cc1Cl)c1ccccc1 (centres undefined)  70.4 °C
26. COc1ccc2c(OC(C)=O)c(OC)c(OC)c(OC(C)=O)c2c1  77.5 °C
27. Cc1c(O)cccc1Cl  86 °C
28. C[C@]12CC[C@H]3[C@@H](CCC4=CC(=O)CC[C@@H]43)[C@@H]1CC[C@@H]2OC(=O)CCc1ccccc1  95.5 °C
29. C[C@H](N)[C@H](O)c1cccc(O)c1  108 °C
30. CN(C)C(=S)SC(=S)N(C)C  110 °C
31. COC(=O)c1ccc(C(=O)OC)o1  112 °C
32. CC(=O)CC(c1ccco1)c1c(O)c2ccccc2oc1=O (centres undefined)  124 °C
33. O=C(O)C(O)C(Cl)(Cl)Cl (centres undefined)  125 °C
34. Cc1cc(O)ccc1O  128 °C
35. O=[N+]([O-])c1ccc(N=Nc2ccccc2)cc1  133 °C
36. O=S(=O)(Cc1ccccc1)c1ccccc1  146 °C
37. CC(C)(C)NCC(O)COc1ccccc1C#N (centres undefined)  164 °C
38. O=C1CN=C(c2ccccc2)c2cc(Cl)ccc2N1CC(F)(F)F  165 °C
39. O=C(O)CC(CC(=O)O)C(=O)O  166 °C
40. O=C(O)c1cccc(O)c1  202 °C
41. CC(/C=C/C=C(C)/C=C/[C@@]12O[C@]1(C)C[C@@H](O)CC2(C)C)=C\C=C\C=C(C)\C=C\C=C(C)\C=C\[C@@]12O[C@]1(C)C[C@@H](O)CC2(C)C  208 °C
42. NC(=O)NC1NC(=O)NC1=O (centres undefined)  238 °C
43. O=C1C[C@@H](c2ccc(O)cc2)Oc2cc(O)cc(O)c21  251 °C
44. O=S(=O)(O)CCNC1CCCCC1  320 °C

With `CC(CCl)OP(=O)(OC(C)CCl)OC(C)CCl` (centres undefined) the ready biodegradability was “not readily biodegradable”.
In the case of `N[C@@H](CSSC[C@H](N)C(=O)O)C(=O)O`, the ready biodegradability is reported as “readily biodegradable”.
For `Brc1ccccc1`, the ready biodegradability was “not readily biodegradable”.
For `O=S(=O)(Cl)Cc1ccccc1`, the ready biodegradability was “readily biodegradable”.
With `O=C(O)c1cccc(O)c1` the ready biodegradability was “readily biodegradable”.
For `CCCCC(CC)CN1C(=O)C2C(C1=O)C1(C(C)C)C=CC2(C)CC1` (centres undefined), the ready biodegradability was “not readily biodegradable”.

In order of falling boiling point:
1. CCO[Si](c1ccccc1)(c1ccccc1)c1ccccc1  344 °C
2. Cc1ccc(-c2ccccc2)cc1C  282 °C
3. COC(=O)c1ccccc1I  280 °C
4. Cc1cc(O)ccc1O  272 °C
5. COc1ccc(C)c([N+](=O)[O-])c1  266 °C
6. CC(C)Cc1ccc(N)cc1  238 °C
7. CCOC(=O)c1ccc(C)cc1  232 °C
8. Nc1ccc(F)c(Cl)c1  228 °C
9. Cc1c(O)cccc1Cl  225 °C
10. C[C@H](N)[C@H](O)c1cccc(O)c1  218 °C
11. CCc1ccccc1Br  199 °C
12. Cc1ccc(Cl)cc1C  194 °C
13. Cc1cc(C)c(C)cn1  188 °C
14. CCC(C)C1CCCCC1 (centres undefined)  179 °C
15. O=[N+]([O-])CCCl  174 °C
16. CCCCC(C)(C)CO  172 °C
17. CC(C)(C)c1ccccn1  170 °C
18. Brc1ccccc1  156 °C
19. Clc1ccncc1  148 °C
20. CC(C)CC1CCCC1  148 °C
21. Oc1c(F)c(F)c(F)c(F)c1F  146 °C
22. CC1CNCC(C)C1 (centres undefined)  144 °C
23. CC#CCCCCC  138 °C
24. CCC(=O)CCl  138 °C
25. C=CCCCCC=C  116 °C
26. BrCBr  97 °C
27. C1COCO1  78 °C

In order of rising log10 Henry constant (atm·m³/mol):
1. C1COCO1  -4.61
2. BrCBr  -3.09
3. Brc1ccccc1  -2.61

`BrCBr` gave a log10 Koa of 3.07.

In order of rising log10 vapour pressure (mmHg):
1. COP(=S)(Oc1cc(Cl)c(Br)cc1Cl)c1ccccc1 (centres undefined)  -7.64
2. O=[N+]([O-])c1ccc(N=Nc2ccccc2)cc1  -5.93
3. CC(=O)C=CC1=C(C)CCCC1(C)C  -1.27
4. CCC(C)C1CCCCC1 (centres undefined)  0.37
5. Oc1c(F)c(F)c(F)c(F)c1F  0.464
6. Brc1ccccc1  0.621
7. CC#CCCCCC  0.875
8. BrCBr  1.65
9. C1COCO1  1.9

In order of falling log10 Koc (L/kg):
1. COP(=S)(Oc1cc(Cl)c(Br)cc1Cl)c1ccccc1 (centres undefined)  4.5
2. CC/C(=C(/CC)c1ccc(O)cc1)c1ccc(O)cc1  4.14
3. CCOC(=O)c1ccc(C)cc1  2.59
4. Brc1ccccc1  2.49
5. COc1ccc(NC(=O)N(C)C)cc1  1.4

same assay, conditions: fish

In order of rising log10 BCF:
1. CC(CCl)OP(=O)(OC(C)CCl)OC(C)CCl (centres undefined)  0.9
2. Oc1cccc(Br)c1  1.18
3. Brc1ccccc1  1.36
4. CCCCC(CC)CN1C(=O)C2C(C1=O)C1(C(C)C)C=CC2(C)CC1 (centres undefined)  2.97
5. COP(=S)(Oc1cc(Cl)c(Br)cc1Cl)c1ccccc1 (centres undefined)  3.78
6. Clc1ccc(Oc2ccc(Cl)c(Cl)c2)cc1Cl  4.51

In order of falling log10 biotransformation half-life (days):
1. Clc1cc(Cl)c(Oc2cc(Cl)c(Cl)c(Cl)c2Cl)cc1Cl  1.97
2. COP(=S)(Oc1cc(Cl)c(Br)cc1Cl)c1ccccc1 (centres undefined)  1.26
3. N#Cc1nn(-c2c(Cl)cc(C(F)(F)F)cc2Cl)c(N)c1S(=O)(=O)C(F)(F)F  1.05
4. Cc1ccc(C(C)(C)C)cc1  0.31
5. CCCCC(CC)CN1C(=O)C2C(C1=O)C1(C(C)C)C=CC2(C)CC1 (centres undefined)  0.31
6. Oc1cccc(Br)c1  -0.95
7. Brc1ccccc1  -1.19
8. CC(CCl)OP(=O)(OC(C)CCl)OC(C)CCl (centres undefined)  -1.31
